What was measured:
[1] = target: Voltage-dependent calcium channel subunit alpha-2/delta-1 (Homo sapiens, UniProt P54289); test: Binding affinity for huamn alpha2-delta1 subunit of voltage gated calcium channel over-expressed in A710 cell membranes using [3H]-gabapentin
[2] = Half-life period was determined in rats at 10 mg/kg, p.o. dose; type: ADME, organism-based; design: dose 10 mg/kg, route oral; details: rat, in vivo, po
[3] = Half-life period was determined in rats at 20 mg/kg, i.p. dose; type: ADME, organism-based; design: dose 20 mg/kg, route intraperitoneal; details: rat, in vivo, ip
[4] = Half-life period was determined in rats at 2 mg/kg, i.v. dose; type: ADME, organism-based; design: dose 2 mg/kg, route intravenous; details: rat, in vivo, iv
[5] = Plasma clearance rate was determined in rats at 2 mg/kg, i.v. dose; type: ADME, organism-based; design: dose 2 mg/kg, route intravenous; details: rat, iv, read-out: Clp
Rattus norvegicus [6] = test: Time required by compound for reaching maximum plasma concentration was determined in rats at 20 mg/kg, i.p. dose; type: ADME, organism-based; design: dose 20 mg/kg, route intraperitoneal; details: in vivo, ip
[7] = Volume of distribution at steady state was determined in rats at 2 mg/kg, i.v. dose; type: ADME, organism-based; design: dose 2 mg/kg, route intravenous; details: rat, in vivo, iv, read-out: Vdss
[8] = Plasma concentration was determined in rats at 10 mg/kg, p.o. dose; type: ADME, organism-based; design: dose 10 mg/kg, route oral; details: rat, po
[9] = Plasma concentration was determined in rats at 20 mg/kg, i.p. dose; type: ADME, organism-based; design: dose 20 mg/kg, route intraperitoneal; details: rat, ip
[10] = Plasma concentration was determined in rats at 2 mg/kg, i.v. dose; type: ADME, organism-based; design: dose 2 mg/kg, route intravenous; details: rat, iv
[11] = Maximum plasma concentration in rats at 10 mg/kg, p.o. dose; type: ADME, organism-based; design: dose 10 mg/kg, route oral; details: rat, po
[12] = Maximum plasma concentration in rats at 20mg/kg, i.p. dose; type: ADME, organism-based; design: dose 20 mg/kg, route intraperitoneal; details: rat, ip
[13] = Bioavailability was determined in rats at 10 mg/kg, p.o. dose; type: ADME, organism-based; details: rat, in vivo, po
Rattus norvegicus [14] = test: Time required by compound for reaching maximum plasma concentration was determined in rats at 10 mg/kg, p.o. dose; type: ADME, organism-based; design: dose 10 mg/kg, route oral; details: in vivo, po

Chain of Voltage-dependent calcium channel subunit alpha-2/delta-1 (P54289 25-956 limits assumed): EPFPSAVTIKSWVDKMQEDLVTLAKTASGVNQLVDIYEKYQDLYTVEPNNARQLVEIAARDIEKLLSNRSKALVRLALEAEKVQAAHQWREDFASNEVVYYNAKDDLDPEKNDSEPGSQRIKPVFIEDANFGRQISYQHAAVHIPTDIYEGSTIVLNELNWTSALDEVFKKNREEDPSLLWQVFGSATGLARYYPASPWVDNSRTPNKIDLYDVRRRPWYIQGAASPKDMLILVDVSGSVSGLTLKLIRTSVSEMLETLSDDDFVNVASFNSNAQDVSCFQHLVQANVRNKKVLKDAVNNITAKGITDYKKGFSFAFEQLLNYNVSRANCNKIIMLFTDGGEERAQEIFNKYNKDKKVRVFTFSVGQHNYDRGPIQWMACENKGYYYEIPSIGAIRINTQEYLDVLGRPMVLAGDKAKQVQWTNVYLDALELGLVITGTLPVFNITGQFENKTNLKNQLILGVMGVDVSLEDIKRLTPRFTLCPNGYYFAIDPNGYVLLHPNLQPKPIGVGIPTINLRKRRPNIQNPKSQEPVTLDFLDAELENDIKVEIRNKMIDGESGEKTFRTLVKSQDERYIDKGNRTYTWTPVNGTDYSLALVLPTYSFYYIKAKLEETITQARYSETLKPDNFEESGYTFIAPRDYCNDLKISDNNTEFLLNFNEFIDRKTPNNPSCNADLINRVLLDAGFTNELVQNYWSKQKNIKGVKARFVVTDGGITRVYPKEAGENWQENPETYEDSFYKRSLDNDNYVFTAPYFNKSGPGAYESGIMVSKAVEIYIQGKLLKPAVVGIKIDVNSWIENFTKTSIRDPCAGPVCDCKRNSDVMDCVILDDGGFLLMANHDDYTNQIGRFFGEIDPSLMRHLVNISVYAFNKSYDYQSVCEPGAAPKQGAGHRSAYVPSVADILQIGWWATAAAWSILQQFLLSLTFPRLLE
Chain of Voltage-dependent calcium channel subunit alpha-2/delta-1 (P54289 957-1103 limits assumed): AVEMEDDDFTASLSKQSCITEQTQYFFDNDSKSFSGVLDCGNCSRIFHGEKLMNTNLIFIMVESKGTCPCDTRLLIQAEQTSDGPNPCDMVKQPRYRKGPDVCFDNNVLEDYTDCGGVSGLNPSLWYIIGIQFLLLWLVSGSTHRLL

Structure (SMILES)	IC50 [1] [nM]	other results
CCOc1ccc(-n2c(C)c3c(C)nnc(-c4ccc(CC)cc4)c3c2C)cc1	107	
CCOc1ccc(-n2c(C)c3c(C)nnc(-c4ccccc4Cl)c3c2C)cc1	4370	
CCOc1ccc(-n2c(C)c3c(C)nnc(CC(C)CC(C)(C)C)c3c2C)cc1 (stereo not drawn)	577	
CCOc1ccc(-n2c(C)c3c(C)nnc(Nc4ccc(OC)cc4)c3c2C)cc1	440	
CCCCCc1nnc(C)c2c(C)n(-c3ccc(OCC)cc3)c(C)c12	360	
CCOc1ccc(-n2c(C)c3c(C)nnc(CCC4CCCC4)c3c2C)cc1	148	
COc1ccc(-n2c(C)c3c(C)nnc(C)c3c2C)cc1	> 10000	
CCOc1ccc(-n2c(C)c3c(C)nnc(-c4ccc(OC(F)(F)F)cc4)c3c2C)cc1	1730	
CCOc1ccc(-n2c(C)c3c(C)nnc(-c4cccc(Cl)c4)c3c2C)cc1	1600	
CCOc1ccc(-n2c(C)c3c(C)nnc(Nc4ccc(C)cc4)c3c2C)cc1	240	
CCOc1ccc(-n2c(C)c3c(C)nnc(-c4ccc(-c5ccccc5)cc4)c3c2C)cc1	1260	
CCOc1ccc(-n2c(C)c3c(C)nnc(N(C)C)c3c2C)cc1	170	
CCOc1ccc(-n2c(C)c3c(C)nnc(CC4CCCC4)c3c2C)cc1	211	
CCOc1ccc(-n2c(C)c3c(C)nnc(C4CCCCC4)c3c2C)cc1	235	
CCOc1ccc(-n2c(C)c3c(C)nnc(C4CC4)c3c2C)cc1	170	
CCOc1ccc(-n2c(C)c3c(C)nnc(OC)c3c2C)cc1	2180	
CCOc1ccc(-n2c(C)c3c(C)nnc(-c4cccc(OC)c4)c3c2C)cc1	335	
CCOc1ccc(-n2c(C)c3c(C)nnc(C)c3c2C)cc1	180	half-life [2]: 4.5 h; half-life [3]: 1.2 h; half-life [4]: 0.91 h; clearance [5]: 18.5 mL/min/kg; T max (Rattus norvegicus [6]): 0.3 h; Vd [7]: 1.3 L/kg; AUC [8]: 27 µM·h; AUC [9]: 141 µM·h; AUC [10]: 6.4 µM·h; Cmax [11]: 3.6 µM; Cmax [12]: 101 µM; bioavailability [13]: 81%; T max (Rattus norvegicus [14]): 2.8 h

Structure (SMILES)	IC50 [1] [nM]	other results
CCOc1ccc(-n2c(C)c3c(C)nnc(-c4ccc(Cl)cc4)c3c2C)cc1	701	
CCOc1ccc(-n2c(C)c3c(C)nnc(CC(C)C)c3c2C)cc1	171	
CCOc1ccc(-n2c(C)c3c(C)nnc(-c4ccc(C)cc4)c3c2C)cc1	86	
CCOc1ccc(-n2c(C)c3c(C)nnc(CCC(C)C)c3c2C)cc1	263	
CCOc1ccc(-c2nnc(C)c3c(C)n(-c4ccc(OCC)cc4)c(C)c23)cc1	153	
CCOc1ccc(-n2c(C)c3c(C)nnc(Nc4ccccc4)c3c2C)cc1	75	
CCOc1ccc(-n2c(C)c3c(C)nnc(-c4ccc(OC)cc4OC)c3c2C)cc1	597	
CCOc1ccc(-n2c(C)c3c(C)nnc(Nc4ccc(N)cc4)c3c2C)cc1	> 10000	
CCOc1ccc(-n2c(C)c3c(C)nnc(-c4ccc(F)cc4)c3c2C)cc1	528	
CCOc1ccc(-n2c(C)c3c(C)nnc(-c4ccccc4)c3c2C)cc1	382	
CCOc1ccc(-n2c(C)c3c(C)nnc(-c4ccccc4OC)c3c2C)cc1	737	
CCOc1ccc(-n2c(C)c3c(C)nnc(C4CCCC4)c3c2C)cc1	185	
CCOc1ccc(-n2c(C)c3c(C)nnc(CC)c3c2C)cc1	250	
CCOc1ccccc1-n1c(C)c2c(C)nnc(C)c2c1C	1850	
CCOc1ccc(-n2c(C)c3c(C)nnc(NC)c3c2C)cc1	40	
CCOc1ccc(-n2c(C)c3c(C)nnc(Nc4ccncc4)c3c2C)cc1	> 10000	
CCOc1cccc(-n2c(C)c3c(C)nnc(C)c3c2C)c1	> 10000	

Reference: ChEMBL document CHEMBL1137964, “Synthesis and biological evaluation of 6-aryl-6H-pyrrolo[3,4-d]pyridazine derivatives: high-affinity ligands to the alpha 2 delta subunit of voltage gated calcium channels” (Bioorg Med Chem Lett, 2004)
